Laboratory results reported in patent US20250161391A1, “UROLITHIN COMBINATION” (Amazentis SA, priority 2023, published 2025).
Entries after “also recorded” stand apart in the source; their conditions may differ.

Tested on: mouse IL-6
Assay: IL-6 ELISA on culture medium of differentiated C2C12 cells exposed to a cytokine mixture (cytomix, CTX)
Assay type: cell-based
Conditions: for % reduction IL-6: C2C12, 24 h pre-treatment, then 24 h with cytomix; for IL-6 / anti-inflammatory effect (FIG. 1): pre-treatment for 24 hours at 3.125 μM alone
Description: C2C12 Myoblasts purchased from ATCC (ref. CRL-1772) were seeded at 8000 cells per well in a 96 well plate (Greiner) using a DMEM Glutamax 4.5g D-glucose (Gibco, ref 31966021) supplemented with FIBS 10% (PanBiotech, ref P190902), 1% PenStrep (Biowest) and 1% Hepes (Biowest). Cells were then differentiated for 6 days using a differentiation medium (DMEM Glutamax 4.5g D-glucose (Gibco, ref 31966021), 2% Horse serum (Thermofisher, ref 160501229) 1% PenStrep and 1% Hepes). All media were sterilized with a 0.45 um filter unit (VWR). After 4 days of the differentiation cells were treated for 24 h with 1) Urolithin A (UA) resuspended in DMSO, 2) ginsenoside […]-3832) or 3) a combination of the two at the indicated doses. A cytokine mixture (“cytomix”) was added at day 5 in addition of the previous treatment for another 24 h, cytokines were respectively used at 5ng (mIFN-γ (Roche ref. 11276905001), TNF-α (Peprotech ref. 300-01A) and IL-1β (Proteintech ref. 200-01B)). The medium was collected and an ELISA for Interleukin-6 were performed following the instruction provided by the supplier (Proteintech ref. KE10007). In particular, the IL-6 ELISA kit is to be used to detect and quantify protein levels of endogenous mouse IL-6. The assay recognizes mouse IL-6. An antibody specific for mouse IL-6 has been pre-coated onto the microwells. The IL-6 protein in samples is captured by the coated antibody after incubation. Following extensive washing, another antibody of biotinylated specific for mouse IL-6 is added to detect the captured mouse IL-6 protein. For signal development, Streptavidin-HRP is added, followed by Tetramethyl-benzidine (TMB) reagent. Solution containing sulfuric acid is used to stop colour development and the colour intensity which is proportional to the quantity of bound protein is measurable at 450 nm with the correction wavelength set at 630 nm, using a microplate plate reader (Fluostar Optima, BMG Labtech). We exposed of C2C12 to a mix of pro-inflammatory cytokines (cytomix, CTX) to induce inflammation signals. Interleukin-6 (IL-6), a multifunctional cytokine produced in cells and induced by a variety of stimulating signals. IL-6 production and release in the media is a proxy of the inflammation induced by treatment with the cytokines part of the cytomix (Tosato & Jones (1990) Blood 75(6), 1305-10). With cytomix treatment, we observed a significant increase in Interleukin 6 (IL-6) secretion, measured as the concentration of IL-6 in the cell culture media.

SMILES | % reduction IL-6 (CTX 5 ng vs. Rg1 3.125 μM + CTX) | IL-6 / anti-inflammatory effect (FIG. 1) (cytomix-treated C2C12) | IL-6 / anti-inflammatory effect (FIG. 1) (cytomix-treated C2C12, listed as Rg1) | IL-6 (FIG. 1) (pre-treatment for 24 hours at 12.5 μM, cytomix-treated C2C12) | IL-6 (FIG. 1) (pre-treatment for 24 hours at 100 μM, cytomix-treated C2C12) | IL-6, dose dependence (FIG. 1) (pre-treatment for 24 hours, 3.125 to 100 μM, cytomix-treated C2C12) | % reduction IL-6 (CTX 5 ng vs. UA 6.25 μM + CTX) [%] | IL-6 secretion (FIG. 1) (pre-treatment for 24 hours at 6.25 μM, cytomix-treated C2C12)
CC(C)=CCC[C@](C)(O[C@@H]1O[C@H](CO)[C@@H](O)[C@H](O)[C@H]1O)[C@H]1CC[C@]2(C)[C@@H]1[C@H](O)C[C@@H]1[C@@]3(C)CC[C@H](O)C(C)(C)[C@@H]3[C@@H](O[C@@H]3O[C@H](CO)[C@@H](O)[C@H](O)[C@H]3O)C[C@]12C [Ginsenoside Rg1, ginsenoside Rg1] | +9.8% | no effects | did not show any anti-inflammatory effect alone; also recorded: no effects | non-significant trend in reduction | significant decrease | dose dependent decrease in IL-6 | – | –
O=c1oc2cc(O)ccc2c2ccc(O)cc12 [Urolithin A] | – | – | – | – | – | – | −16 | significantly decreased IL-6 secretion
